We go through 1 molecule from PMC11477294, “In Vitro Profiling of the Antiviral Peptide TAT-I24” (International Journal of Molecular Sciences, 2024).

In data set [1] the test system is MCMV m123/ie-1 transcript. The data set can be described thus: m123/ie-1 transcript qPCR in MCMV-infected NIH/3T3 cells. The format is cell-based, mouse cytomegalovirus. To be noted: MCMV MOI 1, two hours post-infection, duplicate treatments. The method, then: NIH/3T3 cells were seeded at a density of 2 × 10^4 cells/250 µL per well in a 48-well plate and allowed to attach overnight at 37 °C. On the next day, cells were treated with peptides at the indicated concentrations and infected with MCMV at an MOI of 1 with the aid of centrifugal enhancement, twice at 800× g for 15 min. Cells were then returned to 37 °C for two hours before cell lysis for further processing. RNA isolation, DNase digestion, cDNA reaction and qPCR were performed, as described previously.

Another data set has as its system human PBMCs. The data set can be described thus: LPS-induced cytokine release in PBMCs (ELISA). It counts as cell-based. As to conditions: three peptide concentrations, 0.25 µg/mL LPS, 24 h, duplicate, versus control without peptides. The method, then:
Isolation of PBMCs was performed by adding 3 mL blood on a 3 mL layer of Histopaque-1077 (Sigma Aldrich, Schnelldorf, Germany) and centrifuged at 400× g for 30 min at room temperature with the lowest brake and acceleration settings. After centrifugation, plasma was aspirated and the PBMC layer was transferred to a 15 mL conical centrifugation tube. Cells were resuspended in 10 mL PBS, followed by centrifugation at 250× g for 10 min. The cell pellet was resuspended in 5 mL PBS, followed by centrifugation at 250× g for 10 min for a total of three times. Finally, the pellet was resuspended in 1 mL cell culture medium supplemented with 10% FCS. Cells were then seeded in a 48-well plate at 2.5 × 10^5 cells/125 µL per well, treated with 125 µL peptide dilutions in the absence and presence of 0.25 µg/mL lipopolysaccharide (LPS) from Escherichia coli (Sigma-Aldrich, Schnelldorf, Germany) and incubated at 37 °C for 24 h. Supernatants were then collected for subsequent analysis by ELISA.
ELISA was performed using human tumor necrosis factor-α (TNF-α) and interleukin-6 (IL-6) ELISA MAX^TM De Luxe Sets from Biolegend (San Diego, CA, USA) according to the manufacturer’s instructions. Supernatants were diluted 1:5 for TNF-α and 1:500 for IL-6.
Background: In an ELISA, binding on a coated surface is turned into a signal by an enzyme label.

Data set [2] deals with dsDNA (pcDNA3.1 (+) plasmid). The data set can be described thus: DNA binding assay (SYBR Gold fluorescence reduction). As to conditions: reduction of fluorescence of SYBR Gold bound to pcDNA3.1 (+) plasmid (100 ng); non-linear regression; n = 8. The method, then:
DNA-binding of the peptides was analyzed using an assay based on the reduction of the fluorescence of DNA-bound SYBR^TM Gold dye in the presence of peptide. […] The selectivity index (SI), that is, the ratio between CC50 and IC50, was calculated for all peptides tested in HEK293 cells, except for C22del and C22del_cyc, for which the CC50 could not be calculated from the results of the cell viability assay (Table 1, Supplementary Figure S1).
DNA binding was detected using an assay based on reduction of fluorescence emitted by SYBR^TM Gold (ThermoFisher, Darmstadt, Germany) bound to dsDNA in the presence of peptides using the pcDNA3.1 (+) plasmid (100 ng), as described previously.

Data set [3] is described as follows: Oligomerization/aggregation by SDS-PAGE with Coomassie stain. The format is physicochemical. To be noted: 48 h at 37 °C in PBS or PBS with 10% FCS. The method, then: For determination of peptide stability, 20 µg peptide was added to 50 µL PBS or PBS with 10% FCS and incubated for 48 h at 37 °C or stored at −20 °C. For non-reducing conditions, 4 µL peptide solution was mixed with 1 µL H2O and 5 µL Novex™ Tricine SDS Sample Buffer (2×) (ThermoFisher, Darmstadt, Germany). For reducing conditions, 4 µL peptide solution was mixed with 1 µL NuPAGE™ Sample Reducing Agent (10×) (Invitrogen by Thermo Fisher Scientific) and 5 µL Novex™ Tricine SDS Sample Buffer (2×). Samples were then heated to 85 °C for 10 min. A total of 10 µL was then loaded onto each well of 10–20% Novex™ Tricine, 1.0 mm, Mini Protein Gels (Invitrogen/ThermoFisher, Waltham, MA, USA) and run in 1× Novex™ Tricine SDS Running Buffer (Invitrogen/ThermoFisher, Waltham, MA, USA) for 90 min at 100 V. After electrophoresis, gels were fixed with 40% methanol and 10% acetic acid followed by staining with 0.1% Coomassie brilliant blue R250 (Sigma-Aldrich, Schnelldorf, Germany) in 40% methanol and 10% acetic acid for one hour and destaining using fixing solution.

The test system of data set [4] is human red blood cells (RBCs). Briefly: Hemolysis assay with red blood cells. It counts as cell-based. As to conditions: 1 h at 37 °C. The method, then: Blood from healthy volunteers was collected by venipuncture (Greiner Bio-One, Kremsmünster, Austria) into K2E K2EDTA VacuetteTM tubes (Greiner Bio-One, Kremsmünster, Austria) with 4 mL blood. The assay for hemolysis was adapted from Sæbo et al.. Blood was centrifuged at 1000× g for 10 min, and plasma was kept for further use. Red blood cells were then resuspended in 10 mL PBS and centrifuged again at 1000× g for a total of three times. Cells were then counted using a hemocytometer and seeded at a cell number of 1 × 10^7 cells/100 µL PBS per well in conical 96-well plates (ThermoFisher, Darmstadt, Germany). Next, 1:2 peptide dilutions starting from 40 µM either in PBS or 10% donor serum were prepared, and 100 µL was added to 100 µL of RBC. Plates were then incubated for one hour at 37 °C. As the positive control, three wells with 100 µL RBCs were treated with 100 µL PBS + 0.5% Triton X-100. After incubation, plates were centrifuged at 1000× g for 5 min and supernatants were transferred to flat 96-well plates. Optical density (OD) was determined at 450 nm using a GloMax®-Multi Detection System (Promega, Mannheim, Germany). Images from RBCs from light microscopy and centrifuged plates were taken using an iPhone 12 mini.

What is called IC50 is the concentration that gives 50% inhibition. Read a high IC50 as weaker potency in that assay.

Where a SMILES comes first, the peptide text is derived from it.

As for `CC(C)C[C@H](NC(=O)[C@H](CS)NC(=O)[C@H](CCC(N)=O)NC(=O)[C@@H]1CCCN1C(=O)[C@@H]1CCCN1C(=O)[C@H](CCCNC(=N)N)NC(=O)[C@H](CCCNC(=N)N)NC(=O)[C@H](CCCNC(=N)N)NC(=O)[C@H](CCC(N)=O)NC(=O)[C@H](CCCNC(=N)N)NC(=O)[C@H](CCCNC(=N)N)NC(=O)[C@H](CCCCN)NC(=O)[C@H](CCCCN)NC(=O)[C@H](CCCNC(=N)N)NC(=O)CN)C(=O)N[C@@H](C)C(=O)N[C@@H](Cc1ccccc1)C(=O)N[C@@H](Cc1ccc(O)cc1)C(=O)N[C@@H](C)C(=O)N[C@@H](CS)C(=O)N[C@@H](Cc1ccccc1)C(=O)N[C@@H](CS)C(=O)O` [TAT-I24] (H-GRKKRRQRRRPPQCLAFYACFC-OH), the “m123/ie-1 transcript levels relative to infected cells without peptides” value in data set [1] (1 µM peptide) was “significantly reduced”. Besides, the “m123/ie-1 transcript levels relative to infected cells without peptides” value in data set [1] (10 µM peptide) is recorded as “significantly reduced”. In the data set on human PBMCs, the “LPS-induced IL-6 release” value was “No significant differences” and the “LPS-induced TNF-α release” value is recorded as “No significant differences”. In data set [2], this molecule displayed an IC50 of 1.01 µM. Also, the “oligomer formation, SDS-PAGE under reducing conditions” value in data set [3] (10–20% Tricine gel, Coomassie Brilliant Blue stain) is on record as “additional weak higher molecular weight smear around 45 kDa”. In addition, the “oligomer formation, SDS-PAGE under non-reducing conditions” value in data set [3] (SDS loading buffer without reducing agent, Coomassie stain) is recorded as “only faint bands of monomers”. In addition, the “hemolysis of human RBCs” value in data set [4] (peptide dilutions in PBS or PBS + 10% donor serum, concentrations < 20 µM (1:2 dilutions), OD 450 nm of supernatants, n = 6) was “neither induce hemolysis”. Moreover, in data set [4] (peptide dilutions prepared in PBS, up to 20 µM), the “swelling of RBCs (pellet size after centrifugation)” value is “Swelling of red blood cells”.
